# Publication PMC5343495 (Scientific Reports, 2017)
# Entries after “also recorded” stand apart in the source; their conditions may differ. Read-outs that look alike come from different tables or passages of the source.
# What was measured:
# HEK293 cells = test: Luciferase-coupled ATP quantitative assay (CellTiter-Glo cytotoxicity); type: cell-based; settings: incubation 24, 48 or 72 hours
# Procedure: HEK293 cells were seeded at 5.0 × 10^3 per well into 96-well clear-bottom black plates and incubated in 5% CO2 at 37 °C overnight. […] Luminescence was determined with an Envision 2100 multilabel reader to detect viability following incubation with CellTiter-Glo reagent for 15 min.
# [1] = biological target: T1, Thrombin from human plasma (Homo sapiens, UniProt P00734); test: SPR competitive binding assay of BBR with argatroban (ABA method, Biacore S200); settings: 300 μM BBR; 30, 60 or 120 μM argatroban
# T1 construct: Thrombin, a multifunctional serine protease generated by prothrombin cleavage; purchased Sigma-Aldrich Chemical Co. (St. Louis, MO, USA) T6884; host or cells: human plasma
# Procedure: The response units were measured before the end of injection.
# thrombin [2] = biological target: T2, thrombin (Homo sapiens, UniProt P00734); test: Thrombin inhibition assay (SensoLyte 520 FRET substrate kit); type: biochemical; settings: read-out: inhibition relative to the positive control
# T2 construct: Thrombin, a multifunctional serine protease generated by prothrombin cleavage; purchased AnaSpec, Inc., San Jose, CA
# Procedure: To evaluate the thrombin-inhibitory activity of the hits, a fluorescence assay utilizing a SensoLyte 520 Thrombin Activity Assay Kit (AnaSpec, Inc., San Jose, CA) was performed following the manufacturer’s instructions. This kit contained a novel 5-FAM/QXL 520 (fluorophore/quencher pair) FRET modified substrate (approximately 6 amino acids) that can be cleaved by thrombin at the Arg-Gly (R-G) site. The FRET substrate can be cleaved into two separate fragments, resulting in the release of 5-FAM fluorescence, which can be monitored at an excitation/emission = 490 nm/520 nm[37]. […]
# Ten microlitres of compound solution (300 μM in assay buffer) and 40 μL thrombin solution (0.33 μg/ml in assay buffer) were sequentially added to each well of a black, flat- bottom, non-binding 96-well plate (Corning #3650, Corning, NY). […] After incubation, the fluorescence (excitation 490 nm, emission 520 nm) of each mixture was detected with a 2104 EnVision Multilabel Reader (PerkinElmer).
# For enzymatic reaction, the thrombin solution treated with vehicle buffer alone was used as negative control. […] All fluorescence readings are taken into account in relative fluorescence units (RFU). The experimental data were analyzed by GraphPad Prism software (version 5, Graphpad Software Incorporation, USA).
# washed platelets = test: Inhibition of thrombin-induced platelet aggregation (turbidimetric method); type: cell-based, rabbits; settings: BBR 0.83, 2.50 and 7.50 μM, 5 min at 37 °C, 0.5 U/ml thrombin
# Procedure: PRP was obtained by centrifugation of collected blood at 190 g for 10 min. The platelets were isolated from PRP by centrifugation for 10 min at 650 g, resuspended and washed twice in Ca^2+-free Tyrode’s buffer (138 mM NaCl, 2.68 mM KCI, 11.9 mM NaHCO3, 0.36 mM NaH2PO4, 0.49 mM MgSO4, 5.5 mM glucose, pH7.5)[42]. Washed platelets were then resuspended in Tyrode’s buffer including 1.8 mM CaCl2 at a density of 2 × 10^7 platelets/ml.
# Aggregation was initiated by the addition of 10 μL of thrombin (final concentrations of 0.5 U/ml). Aggregation was recorded at 37 °C for 5 min using a four-channel platelet aggregation analyser (LBY-NJ4, Beijing Precil Instrument Co., Ltd., China). Platelet aggregation inhibitory percentage was calculated using the following equation: Inhibitory percentage (%) = (1 − At/A0) × 100%. At is the platelet aggregation percentage of the test sample, and A0 is the platelet aggregation percentage of the control sample.
# thrombin [3] = biological target: T2, thrombin; design: method as in PMID 12646027, PMID 19674897, PMID 18674905, PMID 18289852, PMID 18052026; settings: training set for pharmacophore generation; cited from earlier work
# [4] = biological target: T1, Thrombin from human plasma; test: SPR binding affinity measurement (Biacore T200, thrombin-immobilized CM5 chip)
# Procedure: SPR binding studies were performed using a Biacore T200 biosensor system (GE Healthcare, Uppsala, Sweden).
# Thrombin was diluted in 10 mM sodium acetate buffer at pH 5.0 and immobilized on a CM5 chip using an amine coupling kit. […] A total of 8419 RU of immobilized proteins was obtained. Sensor preparation and interaction analyses were performed at 25 °C in a PBS-P [10 mM phosphate buffer, 137 mM NaCl, 2.7 mM KCl, 0.05% P20 (pH 7.4)] running buffer containing 5% DMSO.
# Solvent-correction procedures were included to compensate for any DMSO-related bulk refractive index variations. Reference flow cell without immobilized thrombin served as a non-specific binding control. Biacore traces were baseline subtracted and the signal was presented in sensorgrams and measured in RU. […] Equilibrium constants (KD) were calculated using the ‘affinity’ model in Biacore T200 evaluation software version 2.0.
# [5] = Table 2, SPR, immobilized thrombin, read-out: KD
smiles,measurement,setting,value
"COc1ccc2cc3[n+](cc2c1OC)CCc1cc2c(cc1-3)OCO2 [BBR, Berberine]",cytotoxicity,HEK293 cells,no significant cytotoxicity; also recorded: without cytotoxicity
same,competitive binding with argatroban to thrombin,[1],could bind to the same argartroban/thrombin interaction site
same,inhibition at 30 µM,thrombin [2],≥ 50%
same,effect on thrombin-induced platelet aggregation,washed platelets,had the ability to inhibit thrombin-induced platelet aggregation; also recorded: significantly prevented platelet aggregation
NC1CCC(CNC(=O)C2CCCN2C(=O)C(N)C(c2ccccc2)c2ccccc2)CC1 (centres unmarked) [CHEMBL269744],IC50,thrombin [3],0.1 nM
O=C(O)c1cc(O)c(O)c(O)c1 [Gallic acid],Kd,[4],> 200 µM
"O=C1c2ccccc2C(=O)c2c(O)c(O)cc(O)c21 [Hydroxyalizarin, reference compound]",Kd,[4]; [5],> 200 µM
CC1(C)CCC[C@](C)([C@H]2CC[C@]3(C)[C@@H]2[C@H](O)C[C@@H]2[C@@]4(C)CC[C@H](O)C(C)(C)[C@@H]4[C@@H](O)C[C@]23C)O1 [Panaxatriol],Kd,[4]; [5],> 200 µM
